{"source": "patent US10894787B2", "about": "“Modulators of the GPR119 receptor and the treatment of disorders related thereto” (Arena Pharmaceuticals, Inc., priority 2010, dated 2021)", "test": "Dynamic moisture-sorption (DMS) analysis", "type": "physicochemical", "details": "at about 90% RH and 25° C.", "protocol": "A dynamic moisture-sorption (DMS) study was conducted using a dynamic moisture-sorption analyzer, VTI Corporation, SGA-100. Samples were prepared for DMS analysis by placing 5 mg to 20 mg of a sample in a tared sample holder. The sample was placed on the hang-down wire of the VTI balance. A drying step was run, typically at 40° C. and 0.5-1% RH for 1 h. The isotherm temperature is 25° C. Defined % RH holds typically ranged from 10% RH to 90% RH, with intervals of 10 to 20% RH. A % weight change smaller than 0.010% over 10 min, or up to 2 h, whichever occurred first, was required before continuing to the next % RH hold. The water content of the sample equilibrated as described above was determined at each % RH hold."}
{"molecule": "CN(C)C(=O)c1ccc(Nc2ncnc(N3CCC(c4nc(C(C)(C)F)no4)CC3)c2F)c(F)c1", "note": "[Compound 1 (Anhydrous Form), 3-fluoro-4-(5-fluoro-6-(4-(3-(2-fluoropropan-2-yl)-1,2,4-oxadiazol-5-yl)piperidin-1-yl)pyrimidin-4-ylamino)-N,N-dimethylbenzamide]", "values": [{"measurement": "DMS weight gain", "result": "FIG. 8: Less than about 0.35% weight gain at about 90% RH"}]}
